According to article PMC11597260 (Pharmaceutics, 2024):
“And” between values parts separate entries of the source, which are not always exact repeats. Equal entries are not always repeated. Where two headings read alike, the source gives them in different places.

How the values were obtained:
[1] = Stability of spiked rat plasma QC samples under storage conditions; assay type: in vitro ADME; conditions: for Stability, Accuracy (%): rat plasma, mean ± SD, n = 3; for stability of rat plasma samples under storage conditions: room temperature 4 h, 4 °C 8 h, −40 °C 7 days, three freeze–thaw cycles
[2] = Pharmacokinetic study in rats after oral and intratracheal administration of curcumin (plasma, LC-MS/MS); assay type: in vivo, Sprague-Dawley rats
Procedure: This preparation was then diluted with saline to obtain the desired concentrations for animal experiments.
Twelve male SD rats were randomly divided into two groups with six rats each, one for oral administration and the other for inhalation administration. […] Blood samples of approximately 200 μL were collected via intravenous routes at pre-determined time points: before administration and at 5, 15, 30, and 45 min, and 1, 2, 4, 6, and 8 h post-administration. The blood samples were immediately placed in heparinized EP tubes and kept on ice. […] The specific method of intratracheal administration is depicted in Figure 1, and details of the administration process are provided in the Supplementary Materials (Supplementary Figure S2). Blood samples of about 200 μL were collected at time points before administration and at 2, 5, 15, and 30 min, and 1, 2, 4, 6, 8, 12, and 24 h post-administration, also placed in heparinized EP tubes and kept on ice. The whole blood samples were centrifuged at 4 °C at 5000× g for 10 min within 30 min of collection. The plasma was then separated, aliquoted, and stored at −40 °C until analysis.
The major pharmacokinetic parameters including elimination half-life (t1/2), time to reach peak concentration (Tmax), peak concentration (Cmax), area under the curve (AUC), and mean residence time (MRT) were calculated using Phoenix WinNonlin software (Version 8.2, Certara, Radnor, PA, USA). A non-compartmental model was employed for these calculations, which is suitable for analyzing drug concentration data over time without assuming a specific compartmental structure. Graph Prism 8 was utilized to create graphs and plots that illustrate the pharmacokinetic behavior of the compounds of interest. Statistical analysis was performed using IBM SPSS Statistics 26 to conduct a t-test on the dose-normalized AUC(0−t) values from the two different administration groups. […] The results were considered statistically significant at a p-value less than 0.05, indicating a difference between the groups.

[3] = oral curcumin in rats; cited from earlier work
[4] = test system: Caco-2 cell model; conditions: cited from earlier work
[5] = 6 ng/mL, freeze-thaw three cycles
[6] = 6 ng/mL, room temperature for 4 h
[7] = 60 ng/mL, freeze-thaw three cycles
[8] = 60 ng/mL, room temperature for 4 h
[9] = 320 ng/mL, freeze-thaw three cycles
[10] = 320 ng/mL, room temperature for 4 h
[11] = rat plasma, i.t. curcumin 10 mg/kg (27.17 μmol/kg), mean ± SD, n = 6
[12] = rat plasma, i.t. curcumin 10 mg/kg, dose-normalized to oral dose (inhalation/0.5)
[13] = rat plasma, p.o. curcumin 20 mg/kg (54.34 μmol/kg), mean ± SD, n = 6
[14] = male, Sprague-Dawley, rat, plasma, inhaled or intranasal, 10 mg/kg

Stability, Accuracy (%) ([1]; 6 ng/mL, 4 ℃ for 8 h)	Stability, Accuracy (%) ([1]; 6 ng/mL, 40 ℃ for 7 d)	Stability, Accuracy (%) [1, 5] [%]	Stability, Accuracy (%) [1, 6] [%]	Stability, Accuracy (%) ([1]; 60 ng/mL, 4 ℃ for 8 h)	Stability, Accuracy (%) ([1]; 60 ng/mL, 40 ℃ for 7 d)	Stability, Accuracy (%) [1, 7] [%]	Stability, Accuracy (%) [1, 8] [%]	Stability, Accuracy (%) ([1]; 320 ng/mL, 4 ℃ for 8 h)	Stability, Accuracy (%) ([1]; 320 ng/mL, 40 ℃ for 7 d)	Stability, Accuracy (%) [1, 9] [%]	Stability, Accuracy (%) [1, 10] [%]	stability of rat plasma samples under storage conditions [1]	AUC(0–t) [2, 11] [µM·h]	AUC(0–∞) [2, 11] [µM·h]	Cmax [2, 11] [nM]	MRT(0–t) [2, 11] [h]	Tmax [2, 11] [h]	t1/2 [2, 11] [h]	AUC(0–t)/0.5 [2, 12] [µM·h]	SMILES	further results
88.10±4.59	104.10±7.03	89.23±3.79	90.20±4.16	90.43±2.97	87.13±2.10	87.93±2.81	95.53±2.01	93.60±2.52	88.93±0.99	87.87±2.32	95.73±2.23	stable	0.8863 ± 0.1783	0.9189 ± 0.1678	521 ± 203	4.33 ± 1.69	0.25 ± 0.00	3.10 ± 0.95	1.772 ± 0.3566	COc1cc(/C=C/C(=O)CC(=O)/C=C/c2ccc(O[C@@H]3O[C@H](C(=O)O)[C@@H](O)[C@H](O)[C@H]3O)c(OC)c2)ccc1O [COG]	exposure relative to COS ([2]; rat plasma, oral dosing of 20 mg/kg curcumin): 30–40 times; AUC(0–t) [2, 13]: 1.68 ± 0.2441 µM·h; AUC(0–∞) [2, 13]: 1.73 ± 0.2565 µM·h; Cmax [2, 13]: 830 ± 158 nM; MRT(0–t) [2, 13]: 2.54 ± 0.29 h; Tmax [2, 13]: 0.54 ± 0.71 h; t1/2 [2, 13]: 1.74 ± 0.57 h
100.63±2.40	90.73±1.36	93.73±4.97	99.67±4.83	93.27±2.31	94.53±0.40	93.23±0.96	96.63±1.39	99.23±1.50	92.43±5.58	93.80±0.46	100.77±0.65	stable	1.377 ± 0.6043	1.444 ± 0.6249	416 ± 138	5.14 ± 1.03	0.38 ± 0.14	5.02 ± 1.27	2.754 ± 1.208	COc1cc(/C=C/C(=O)CC(=O)/C=C/c2ccc(OS(=O)(=O)O)c(OC)c2)ccc1O [COS]	exposure, AUC(0–t)/0.5 intratracheal relative to AUC(0–t) oral ([2]; rat plasma, i.t. 10 mg/kg dose-normalized vs p.o. 20 mg/kg): ~50 fold; AUC(0–t) [2, 13]: 0.04978 ± 0.02714 µM·h; AUC(0–∞) [2, 13]: 0.0577 ± 0.02778 µM·h; Cmax [2, 13]: 23.4 ± 9.4 nM; MRT(0–t) [2, 13]: 2.37 ± 0.98 h; Tmax [2, 13]: 1.13 ± 0.96 h; t1/2 [2, 13]: 1.11 ± 0.87 h
96.00±2.57	105.13±4.11	102.33±7.46	92.53±2.91	97.73±0.83	97.40±0.36	95.20±2.19	98.57±2.22	102.67±0.06	93.87±3.21	90.10±4.20	103.93±1.07									COc1cc(/C=C/C(=O)CC(=O)/C=C/c2ccc(O)c(OC)c2)ccc1O [CUR, Curcumin]	bioavailability [3]: less than 1%; Papp [4]: 3.18 ± 1.08 × 10^−6 cm/s; AUC(0-inf) [2, 14]: 1.38 ± 0.37 µM·h; Cmax [2, 14]: 2880 ± 742 nM; half-life [2, 14]: 3.73 ± 1.03 h; AUC(0-t) ([2]; male, Sprague-Dawley, rat, plasma, inhaled or intranasal, 10 mg/kg, rat plasma, i.t. curcumin 10 mg/kg (27.17 μmol/kg), mean ± SD, n = 6, read-out: AUC(0–t)): 1.33 ± 0.374 µM·h; AUC(0-t) ([2]; male, Sprague-Dawley, rat, plasma, inhaled or intranasal, 10 mg/kg, rat plasma, i.t. curcumin 10 mg/kg, dose-normalized to oral dose (inhalation/0.5), read-out: AUC(0–t)/0.5): 2.65 ± 0.749 µM·h; MRT last ([2]; male, Sprague-Dawley, rat, plasma, inhaled or intranasal, 10 mg/kg, read-out: MRT(0–t)): 2.01 ± 0.78 h; Tmax ([2]; male, Sprague-Dawley, rat, plasma, inhaled or intranasal, 10 mg/kg, read-out: Tmax): 0.05 ± 0.03 h; AUC(0-t) ([2]; male, Sprague-Dawley, rat, plasma, po, 20 mg/kg, rat plasma, p.o. curcumin 20 mg/kg, calculated using the lower limit of quantification over 6 h, read-out: AUC(0–t)): < 0.0326 µM·h; plasma levels of the parent compound (below lower limit of quantification) ([2]; rat plasma, oral dosing of 20 mg/kg curcumin, 20 mg/kg): < 2 ng/mL and < 5.434 nM
